In BindingDB's records for doi:10.1124/jpet.102.047118 (Juvantia Pharma, 2003):
Values joined by “and” are separate entries in the source; they are usually repeats but may differ in a detail not shown here. Identical values can stand only once. Peptide text beside a SMILES is read from it.

Legend:
[1] = target: Neuropeptide FF receptor 2 (Homo sapiens, UniProt Q9Y5X5)
[2] = target: T1, Prolactin-releasing peptide receptor (Homo sapiens, UniProt P49683)
T1 sequence (P49683 whole entry): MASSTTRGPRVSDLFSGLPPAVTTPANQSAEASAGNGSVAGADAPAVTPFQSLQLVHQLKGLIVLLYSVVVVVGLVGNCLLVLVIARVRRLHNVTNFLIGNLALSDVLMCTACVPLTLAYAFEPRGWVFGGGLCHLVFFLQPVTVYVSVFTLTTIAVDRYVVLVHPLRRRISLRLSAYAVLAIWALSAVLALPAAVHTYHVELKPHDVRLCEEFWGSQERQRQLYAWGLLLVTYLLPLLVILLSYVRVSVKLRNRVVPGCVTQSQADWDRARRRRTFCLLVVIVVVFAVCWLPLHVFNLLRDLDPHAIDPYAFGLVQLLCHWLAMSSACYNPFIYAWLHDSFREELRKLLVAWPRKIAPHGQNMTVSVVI

Chain of Neuropeptide FF receptor 2 (Q9Y5X5 whole entry): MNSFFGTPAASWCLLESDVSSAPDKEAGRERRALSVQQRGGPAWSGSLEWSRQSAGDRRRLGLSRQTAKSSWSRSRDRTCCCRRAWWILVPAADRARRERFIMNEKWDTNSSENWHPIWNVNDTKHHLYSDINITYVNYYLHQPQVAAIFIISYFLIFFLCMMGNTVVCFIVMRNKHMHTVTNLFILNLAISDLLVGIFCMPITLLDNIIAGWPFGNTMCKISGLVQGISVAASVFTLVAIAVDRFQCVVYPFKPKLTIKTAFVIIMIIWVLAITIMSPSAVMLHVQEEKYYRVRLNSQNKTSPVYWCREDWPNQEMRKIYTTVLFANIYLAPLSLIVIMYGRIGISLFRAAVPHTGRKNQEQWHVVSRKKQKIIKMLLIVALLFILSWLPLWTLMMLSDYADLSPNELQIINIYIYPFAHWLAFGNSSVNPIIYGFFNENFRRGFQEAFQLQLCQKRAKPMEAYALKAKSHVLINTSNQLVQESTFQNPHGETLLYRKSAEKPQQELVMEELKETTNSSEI

Compound | Ki [1] [nM] | Ki | Ki [2] [nM]
CC(C)C[C@H](NC(=O)[C@H](N)Cc1ccc(O)cc1)C(=O)N(C)[C@@H](Cc1ccccc1)C(=O)N[C@@H](CCC(N)=O)C(=O)N1CCC[C@H]1C(=O)N[C@@H](CCC(N)=O)C(=O)N[C@@H](CCCN=C(N)N)C(=O)N[C@@H](Cc1ccccc1)C(N)=O [CAS_132709] (HELM PEPTIDE1{[dY].L.[meF].Q.P.Q.R.F.[am]}$$$$V2.0) | 5.3 |  | 
CC(C)C[C@H](NC(=O)[C@@H](N)Cc1ccccc1)C(=O)N[C@@H](Cc1ccccc1)C(=O)N[C@@H](CCC(N)=O)C(=O)N1CCC[C@H]1C(=O)N[C@@H](CCC(N)=O)C(=O)N[C@@H](CCCN=C(N)N)C(=O)N[C@@H](Cc1ccccc1)C(N)=O [CAS_235433-36-0] |  | 5.2 nM and 5.9 nM | 
CC(C)C[C@H](NC(=O)[C@@H](N)Cc1ccccc1)C(=O)N[C@@H](Cc1ccccc1)C(=O)N[C@@H](CCC(N)=O)C(=O)N1CCC[C@H]1C(=O)N[C@@H](CCC(N)=O)C(=O)N[C@@H](CCCN=C(N)N)C(=O)N[C@@H](Cc1ccccc1)C(=O)O [NSC_0] |  | 2400 nM | 
CC[C@H](C)[C@H](NC(=O)CN)C(=O)N[C@@H](CCCN=C(N)N)C(=O)N1CCC[C@H]1C(=O)N[C@H](C(=O)NCC(=O)N[C@@H](CCCN=C(N)N)C(=O)N[C@@H](Cc1ccccc1)C(N)=O)C(C)C [NSC_0] (H-GIRPVGRF-NH2) | 32 |  | 47
N=C(N)NCCCC(NC(=O)C(c1ccccc1)c1ccccc1)C(=O)NCc1ccc(O)cc1 (configuration not stated) [NSC_5311023] | 640 | 390 nM | > 10000

Second part, the compound after the results:

Ki [1] [nM] | Ki | Ki [2] [nM] | Compound
23 | 2.3 nM | 1 | CC[C@H](C)[C@H](NC(=O)CNC(=O)[C@H](CCCNC(=N)N)NC(=O)CNC(=O)[C@@H](NC(=O)[C@H](Cc1ccc(O)cc1)NC(=O)[C@H](Cc1c[nH]c2ccccc12)NC(=O)[C@H](C)NC(=O)[C@@H]1CCCN1C(=O)[C@H](CC(N)=O)NC(=O)[C@@H](NC(=O)[C@H](CC(=O)O)NC(=O)[C@@H]1CCCN1C(=O)[C@@H](N)[C@@H](C)O)[C@@H](C)CC)[C@@H](C)O)C(=O)N[C@@H](CCCNC(=N)N)C(=O)N1CCC[C@H]1C(=O)N[C@H](C(=O)NCC(=O)N[C@@H](CCCNC(=N)N)C(=O)N[C@@H](Cc1ccccc1)C(N)=O)C(C)C [CAS_222988-10-5] (H-TPDINPAWYTGRGIRPVGRF-NH2)
15 | 15 nM | > 10000 | CSCC[C@H](N)C(=O)N1CCC[C@H]1C(=O)N[C@@H](Cc1cnc[nH]1)C(=O)N[C@@H](CO)C(=O)N[C@@H](Cc1ccccc1)C(=O)N[C@@H](C)C(=O)N[C@@H](CC(N)=O)C(=O)N[C@@H](CC(C)C)C(=O)N1CCC[C@H]1C(=O)N[C@@H](CC(C)C)C(=O)N[C@@H](CCCNC(=N)N)C(=O)N[C@@H](Cc1ccccc1)C(N)=O [RFamide-related peptide 1] (H-MPHSFANLPLRF-NH2)
55 | 19 nM | > 10000 | CC(C)C[C@H](NC(=O)[C@H](CC(N)=O)NC(=O)[C@@H]1CCCN1C(=O)[C@@H](N)C(C)C)C(=O)N1CCC[C@H]1C(=O)N[C@@H](CCC(N)=O)C(=O)N[C@@H](CCCNC(=N)N)C(=O)N[C@@H](Cc1ccccc1)C(N)=O [RFamide-related peptide 3]
